Our source for the IC50 and GI50 values is patent publication US20260365670A1, “EGFR INHIBITORS AND USES THEREOF” (DIZAL (JIANGSU) PHARMACEUTICAL CO., LTD., priority 2022, published 2026).

The target in one test is T1, EGFR L858R (Homo sapiens, UniProt P00533, L858R).
T1 construct: purchased Carna Bio
The test is described as follows: Inhibition of EGFR L858R biochemical enzymatic activity (HTRF). The following applies: 1 mM ATP, 1 h at room temperature, read-out: IC50 @L858R. In outline: (§1)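 Each enzyme was first added to plates holding compound. The reaction was then started with ATP (1 mM) and peptide substrate (1 μM). It was stopped after 1 h at room temperature with EDTA detection reagents and read at 615/665 nm to derive IC50s.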

In another test the target is T2, EGFR Exon19Del/T790M (Homo sapiens, UniProt P00533, DEL746-750/T790M).
T2 construct: purchased Carna Bio
Description: Inhibition of EGFR Exon19Del/T790M biochemical enzymatic activity (HTRF). The settings on record: EGFR Exon19Del/T790M, 1 mM ATP, 1 h at room temperature, read-out: IC50 @Del19-T790M. In outline:
as §1

Test [1] addresses T3, EGFR[T790M/C797S/d746-750] (Homo sapiens, UniProt P00533, C797S/DEL746-750/T790M).
T3 construct: purchased Carna Bio
The test is described as follows: Inhibition of EGFR[T790M/C797S/d746-750] biochemical enzymatic activity (HTRF). The settings on record: EGFR[T790M/C797S/d746-750], 1 mM ATP, 1 h at room temperature, read-out: IC50 @T790M - C797S - Del19. In short, it runs like this:
as §1

The next test has as its target T4, EGFR[T790M/C797S/L858R] (Homo sapiens, UniProt P00533, C797S/L858R/T790M).
T4 construct: purchased Carna Bio
Description: Inhibition of EGFR[T790M/C797S/L858R] biochemical enzymatic activity (HTRF). The following applies: EGFR[T790M/C797S/L858R], 1 mM ATP, 1 h at room temperature, read-out: IC50 @T790M- C797S - L858R. In outline:
as §1

The next test has as its target T5, EGFR Exon19Del (Homo sapiens, UniProt P00533, DEL746-750).
T5 construct: purchased Carna Bio
Description: Inhibition of EGFR Exon19Del biochemical enzymatic activity (HTRF). The following applies: EGFR Exon19Del, 1 mM ATP, 1 h at room temperature, read-out: IC50 @Del19. In outline:
as §1

The target in another test is T6, EGFR (C797S L858R) (Homo sapiens, UniProt P00533, C797S/L858R).
T6 construct: purchased signalchem
The test is described as follows: Inhibition of EGFR (C797S L858R) biochemical enzymatic activity (HTRF). The following applies: EGFR (C797S L858R), 1 mM ATP, 1 h at room temperature, read-out: IC50 @L858-C797S. In short, it runs like this:
as §1

The next test concerns PC-9. The test is described as follows: Cell proliferation assay, PC-9 cells (CellTiter-Glo, 72 hours). Format: cell-based. The following applies: PC9 cells, read-out: GI50 PC9. In short, it runs like this:
(§2)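 Ba/F3 cells (5000/well) and PC-9 cells (500/well, RPMI1640 with 10% FBS) were plated overnight and then dosed with a compound concentration series. Viable cells were read at day 0 (G0) and after treatment (G3). GI50 came from curve fits of G0-corrected proliferation relative to DMSO.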

The next test concerns the target T7, EGFR (d746-750 C797S) (Homo sapiens, UniProt P00533, C797S/DEL746-750).
T7 construct: purchased signalchem
The test is described as follows: Inhibition of EGFR (d746-750 C797S) biochemical enzymatic activity (HTRF). The settings on record: EGFR (d746-750 C797S), 1 mM ATP, 1 h at room temperature, read-out: IC50 @Del19-C797S. In outline: as §1

Test [2] relates to Ba/F3 cells expressing EGFR mutations. The test is described as follows: Cell proliferation assay, Ba/F3 cells expressing EGFR mutations (CellTiter-Glo, 72 hours). The format is cell-based. In outline:
as §2

A further test has as its target T8, EGFR wild type (Homo sapiens, UniProt P00533).
T8 construct: purchased Carna Bio
The test is described as follows: Inhibition of EGFR wild type biochemical enzymatic activity (HTRF). The settings on record: EGFR wild type, 1 mM ATP, 1 h at room temperature, read-out: IC50 @WT. In outline: as §1

For the next test, the system named is A-431. Description: Cell proliferation assay, A-431 cells (GI50, Table 6). The format is cell-based. The following applies: Homo sapiens, A-431, A-431 cells.
A further test addresses T9, EGFR L858R/T790M (Homo sapiens, UniProt P00533, L858R/T790M).
T9 construct: purchased Carna Bio
Description: Inhibition of EGFR L858R/T790M biochemical enzymatic activity (HTRF). The following applies: EGFR L858R/T790M, 1 mM ATP, 1 h at room temperature, read-out: IC50 @L858R-T790M. In outline:
as §1

pIC50: −log10 of the molar value. Where two headings read alike, the source gives them in different places. Where only a bound is given, the exact number is not on record here.

T1 sequence (P00533 25-1210 L858R): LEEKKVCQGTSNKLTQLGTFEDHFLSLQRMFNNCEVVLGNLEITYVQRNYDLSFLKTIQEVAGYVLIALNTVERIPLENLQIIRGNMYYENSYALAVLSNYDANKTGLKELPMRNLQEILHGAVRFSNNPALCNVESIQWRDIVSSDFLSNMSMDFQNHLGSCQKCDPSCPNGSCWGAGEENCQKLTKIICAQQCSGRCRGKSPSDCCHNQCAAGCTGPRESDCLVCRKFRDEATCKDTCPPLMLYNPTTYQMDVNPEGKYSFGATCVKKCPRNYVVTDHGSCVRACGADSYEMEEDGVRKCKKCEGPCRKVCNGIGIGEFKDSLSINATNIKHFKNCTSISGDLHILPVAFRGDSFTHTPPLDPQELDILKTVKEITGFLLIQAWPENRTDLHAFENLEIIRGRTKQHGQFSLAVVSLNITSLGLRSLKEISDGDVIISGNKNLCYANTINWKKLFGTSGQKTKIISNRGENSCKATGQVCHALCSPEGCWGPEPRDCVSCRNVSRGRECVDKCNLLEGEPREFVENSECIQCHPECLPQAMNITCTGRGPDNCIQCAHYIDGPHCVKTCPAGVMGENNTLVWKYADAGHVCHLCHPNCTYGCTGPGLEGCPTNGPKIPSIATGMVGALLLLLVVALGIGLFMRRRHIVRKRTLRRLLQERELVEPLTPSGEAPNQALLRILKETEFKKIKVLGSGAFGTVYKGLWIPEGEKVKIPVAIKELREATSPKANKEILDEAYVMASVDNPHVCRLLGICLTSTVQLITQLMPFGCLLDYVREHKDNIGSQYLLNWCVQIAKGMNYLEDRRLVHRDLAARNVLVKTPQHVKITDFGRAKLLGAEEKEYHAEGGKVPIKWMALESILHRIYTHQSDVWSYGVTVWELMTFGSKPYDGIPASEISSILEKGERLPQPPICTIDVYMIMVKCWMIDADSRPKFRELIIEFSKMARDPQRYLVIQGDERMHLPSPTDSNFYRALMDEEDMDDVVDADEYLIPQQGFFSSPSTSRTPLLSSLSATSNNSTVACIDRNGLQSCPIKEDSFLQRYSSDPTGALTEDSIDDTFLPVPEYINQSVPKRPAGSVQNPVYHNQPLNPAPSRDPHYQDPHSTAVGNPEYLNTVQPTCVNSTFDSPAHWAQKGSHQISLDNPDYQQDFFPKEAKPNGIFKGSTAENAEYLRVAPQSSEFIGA
T8 sequence (P00533 25-1210): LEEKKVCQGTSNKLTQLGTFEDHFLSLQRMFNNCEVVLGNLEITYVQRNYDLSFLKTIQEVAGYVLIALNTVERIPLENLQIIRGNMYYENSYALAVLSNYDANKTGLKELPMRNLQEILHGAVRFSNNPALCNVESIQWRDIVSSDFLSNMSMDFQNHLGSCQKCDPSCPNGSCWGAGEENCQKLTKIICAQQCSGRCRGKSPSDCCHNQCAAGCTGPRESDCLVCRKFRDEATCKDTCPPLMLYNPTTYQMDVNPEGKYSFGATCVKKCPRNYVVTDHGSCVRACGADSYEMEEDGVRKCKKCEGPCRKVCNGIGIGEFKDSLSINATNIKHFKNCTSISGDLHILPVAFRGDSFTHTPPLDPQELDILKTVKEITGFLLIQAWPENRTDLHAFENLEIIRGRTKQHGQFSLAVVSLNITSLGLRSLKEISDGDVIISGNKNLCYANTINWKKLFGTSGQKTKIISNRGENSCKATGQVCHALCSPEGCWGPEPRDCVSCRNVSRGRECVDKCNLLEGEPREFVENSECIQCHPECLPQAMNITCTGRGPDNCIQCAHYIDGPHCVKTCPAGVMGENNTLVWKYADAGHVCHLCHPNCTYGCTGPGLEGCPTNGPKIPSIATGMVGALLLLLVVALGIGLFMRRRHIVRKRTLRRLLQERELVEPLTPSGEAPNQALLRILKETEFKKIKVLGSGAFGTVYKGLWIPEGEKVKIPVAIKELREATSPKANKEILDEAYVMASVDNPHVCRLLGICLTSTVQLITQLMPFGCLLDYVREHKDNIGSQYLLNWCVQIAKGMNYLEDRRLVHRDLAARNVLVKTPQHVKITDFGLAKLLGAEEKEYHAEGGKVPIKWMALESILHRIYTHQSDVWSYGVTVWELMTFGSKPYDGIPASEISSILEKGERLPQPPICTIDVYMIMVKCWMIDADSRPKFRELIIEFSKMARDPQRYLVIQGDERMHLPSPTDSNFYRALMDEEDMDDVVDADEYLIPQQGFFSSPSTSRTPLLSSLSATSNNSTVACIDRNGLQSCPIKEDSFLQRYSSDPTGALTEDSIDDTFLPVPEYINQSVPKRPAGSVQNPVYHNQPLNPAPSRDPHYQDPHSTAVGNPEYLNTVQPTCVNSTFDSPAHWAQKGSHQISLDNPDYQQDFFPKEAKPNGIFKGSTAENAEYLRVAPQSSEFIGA
T7 sequence (P00533 with tags, fused parts or gaps DEL746-750/C797S limits assumed): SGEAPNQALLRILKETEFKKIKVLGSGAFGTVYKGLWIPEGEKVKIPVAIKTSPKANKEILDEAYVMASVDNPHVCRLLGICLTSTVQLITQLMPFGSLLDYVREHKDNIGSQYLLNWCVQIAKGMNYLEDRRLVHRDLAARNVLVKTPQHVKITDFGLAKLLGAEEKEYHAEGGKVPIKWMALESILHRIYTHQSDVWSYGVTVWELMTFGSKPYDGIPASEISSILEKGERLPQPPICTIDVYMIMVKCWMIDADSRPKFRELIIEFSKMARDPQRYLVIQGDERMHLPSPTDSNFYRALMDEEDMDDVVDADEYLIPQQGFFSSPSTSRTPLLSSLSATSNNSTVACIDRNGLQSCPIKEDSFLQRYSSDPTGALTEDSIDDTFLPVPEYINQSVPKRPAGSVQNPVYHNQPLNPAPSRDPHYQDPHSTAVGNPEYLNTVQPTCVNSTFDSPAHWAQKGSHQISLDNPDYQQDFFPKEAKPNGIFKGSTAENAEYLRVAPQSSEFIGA
T4 sequence (P00533 25-1210 T790M/C797S/L858R): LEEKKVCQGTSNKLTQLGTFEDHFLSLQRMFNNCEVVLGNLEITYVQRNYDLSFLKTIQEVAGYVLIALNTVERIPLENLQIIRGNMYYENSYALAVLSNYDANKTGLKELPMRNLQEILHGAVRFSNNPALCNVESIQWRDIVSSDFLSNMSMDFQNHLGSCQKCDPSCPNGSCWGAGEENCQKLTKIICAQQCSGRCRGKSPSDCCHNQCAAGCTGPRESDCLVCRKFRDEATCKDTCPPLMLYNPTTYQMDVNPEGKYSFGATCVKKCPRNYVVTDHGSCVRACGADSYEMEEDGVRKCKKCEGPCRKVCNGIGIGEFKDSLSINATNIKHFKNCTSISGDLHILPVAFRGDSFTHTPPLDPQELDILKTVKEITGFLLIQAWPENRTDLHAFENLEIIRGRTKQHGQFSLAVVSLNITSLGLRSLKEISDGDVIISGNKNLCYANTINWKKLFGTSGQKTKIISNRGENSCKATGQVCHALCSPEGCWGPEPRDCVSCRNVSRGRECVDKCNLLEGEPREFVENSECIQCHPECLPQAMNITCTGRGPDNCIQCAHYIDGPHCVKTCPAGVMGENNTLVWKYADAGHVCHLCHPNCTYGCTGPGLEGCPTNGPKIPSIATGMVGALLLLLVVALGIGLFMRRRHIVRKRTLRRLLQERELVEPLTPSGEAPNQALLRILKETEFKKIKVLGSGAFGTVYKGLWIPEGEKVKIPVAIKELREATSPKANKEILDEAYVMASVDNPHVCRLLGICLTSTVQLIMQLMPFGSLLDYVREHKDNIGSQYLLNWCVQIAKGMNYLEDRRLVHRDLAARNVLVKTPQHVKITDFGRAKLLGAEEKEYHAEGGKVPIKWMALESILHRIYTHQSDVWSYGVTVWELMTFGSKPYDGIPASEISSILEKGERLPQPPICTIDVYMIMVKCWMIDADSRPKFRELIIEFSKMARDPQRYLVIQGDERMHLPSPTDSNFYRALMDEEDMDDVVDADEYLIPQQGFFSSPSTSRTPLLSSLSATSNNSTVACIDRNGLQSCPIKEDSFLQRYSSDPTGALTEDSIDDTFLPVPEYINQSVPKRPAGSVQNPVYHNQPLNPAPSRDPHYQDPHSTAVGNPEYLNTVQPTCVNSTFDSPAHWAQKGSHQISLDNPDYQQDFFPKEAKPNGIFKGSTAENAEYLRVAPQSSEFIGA
T2 sequence (P00533 with tags, fused parts or gaps DEL746-750/T790M limits assumed): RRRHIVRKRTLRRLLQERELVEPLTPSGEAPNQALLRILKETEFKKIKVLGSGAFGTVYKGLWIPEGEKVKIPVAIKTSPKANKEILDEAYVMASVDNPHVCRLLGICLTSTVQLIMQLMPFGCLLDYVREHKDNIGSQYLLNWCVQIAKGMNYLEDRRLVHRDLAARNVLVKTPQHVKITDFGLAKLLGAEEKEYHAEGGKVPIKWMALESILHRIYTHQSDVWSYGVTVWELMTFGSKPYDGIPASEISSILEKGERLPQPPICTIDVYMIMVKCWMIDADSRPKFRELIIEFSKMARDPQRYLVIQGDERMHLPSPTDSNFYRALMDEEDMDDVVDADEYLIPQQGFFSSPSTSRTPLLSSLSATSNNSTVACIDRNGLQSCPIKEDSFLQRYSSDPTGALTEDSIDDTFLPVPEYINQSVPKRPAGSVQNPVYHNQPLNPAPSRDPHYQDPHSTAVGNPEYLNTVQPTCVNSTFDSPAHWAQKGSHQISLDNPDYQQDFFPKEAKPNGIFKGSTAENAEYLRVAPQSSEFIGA

Consider `Cc1cc2cc(n1)-c1cnn(C)c1OCCN1CC3CCC(C3)(C1)n1c(nc3ccc(N(C)CCN(C)C)cc31)NC2=O` (single isomer, unassigned) [Example B47B], for which the negative logarithm of the IC50 (pIC50) was 7.23 on EGFR L858R; 8.55 at EGFR Exon19Del/T790M; 8.72 in test [1]; 8.82 on EGFR[T790M/C797S/L858R]; 8.24 at EGFR Exon19Del; 7.85 on EGFR (C797S L858R). For the same compound, the figures for the negative-log IC50 (pIC50) on EGFR (d746-750 C797S), on EGFR wild type and at EGFR L858R/T790M were 8.55, 6.09 and 8.46, respectively. Moreover, the GI50 with PC-9 was found to be 0.012 µM; in test [2] (BaF3 cells, EGFR DEL19 - C797S, read-out: GI50 DEL19 - C797S/BaF3), 0.002 µM; in test [2] (BaF3 cells, EGFR DEL19 - T790-C797S, read-out: GI50 DEL19 - T790-C797S/BaF3), 0.002 µM; in test [2] (BaF3 cells, EGFR L858R - C797S, read-out: GI50 L858R - C797S/BaF3), 0.009 µM; in test [2] (BaF3 cells, EGFR L858R - T790-C797S, read-out: GI50 L858R - T790-C797S/BaF3), 0.002 µM; in test [2] (BaF3 cells, EGFR L858R - T790M, read-out: GI50 L858R - T790M/BaF3), 0.002 µM. The GI50 in test [2] (BaF3 cells, EGFR L858R, read-out: GI50 L858R/BaF3) was found to be 0.011 µM; in [2] (EGFR DEL19 - T790M, read-out: GI50 DEL19 - T790M), 0.002 µM; in the test on A-431, 0.378 µM.
`Cc1cc2cc(n1)-c1cc(=O)n(C)cc1OCCC[C@@H](C)Cn1c(nc3ccccc31)NC2=O` [Example B11, (12R)-5,12,27-Trimethyl-8-oxa-5,14,21,23,28-pentaazapentacyclo[23.3.1.0^{2,7}.0^{14,22}.0^{15,20}]nonacosa-1(29),2,6,15,17,19,21,25,27-nonaene-4,24-dione]: the pIC50 is less than 5.30 at EGFR L858R; 6.29 at EGFR Exon19Del/T790M; 6.40 in test [1]; less than 5.30 on EGFR[T790M/C797S/L858R]; less than 5.30 on EGFR Exon19Del; less than 5.30 on EGFR (C797S L858R). Further, the figures for the pIC50 on EGFR (d746-750 C797S), at EGFR wild type and at EGFR L858R/T790M were 5.36, less than 5.30 and less than 5.30, respectively. The GI50 with PC-9 (Homo sapiens, PC-9, 72 h) worked out at 1.49 µM; in test [2] (Mus musculus, BaF3, 72 h, BaF3 cells, EGFR DEL19 - C797S, read-out: GI50 DEL19 - C797S/BaF3), 0.626 µM; in [2] (Mus musculus, BaF3, 72 h, BaF3 cells, EGFR DEL19 - T790-C797S, read-out: GI50 DEL19 - T790-C797S/BaF3), 0.269 µM; in [2] (Mus musculus, BaF3, 72 h, BaF3 cells, EGFR L858R - C797S, read-out: GI50 L858R - C797S/BaF3) it was 2.44 µM; in test [2] (Mus musculus, BaF3, 72 h, BaF3 cells, EGFR L858R - T790-C797S, read-out: GI50 L858R - T790-C797S/BaF3), 0.764 µM; in test [2] (Mus musculus, BaF3, 72 h, BaF3 cells, EGFR L858R - T790M, read-out: GI50 L858R - T790M/BaF3) it was 2.52 µM. Also, the GI50 was 3.57 µM in test [2] (Mus musculus, BaF3, 72 h, BaF3 cells, EGFR L858R, read-out: GI50 L858R/BaF3); 0.441 µM in [2] (Mus musculus, BaF3, 72 h, EGFR DEL19 - T790M, read-out: GI50 DEL19 - T790M); 5.38 µM in the test on A-431.
